Data reported in the CheMixHub viscosity set.

Assay: xn = mol fraction of the nth substance listed

COC(=O)OC + CCCCCCCC
298.15 K, 101.3 kPa
Conditions	viscosity [mPa·s]
x1 = 0.0701	0.503
x1 = 0.1113	0.495
x1 = 0.2006	0.483
x1 = 0.2669	0.476
x1 = 0.2955	0.476
x1 = 0.4863	0.481
x1 = 0.6318	0.494
x1 = 0.6706	0.499
x1 = 0.7712	0.517
x1 = 0.8602	0.543
x1 = 0.9459	0.569

COCCOCCOC + CCCCCCCC
viscosity [mPa·s], 101.33 kPa
Conditions	x1 = 0.0946	x1 = 0.203	x1 = 0.2985	x1 = 0.3956	x1 = 0.4955	x1 = 0.5945	x1 = 0.697	x1 = 0.7972	x1 = 0.8977
298.15 K	0.515	0.535	0.561	0.594	0.636	0.681	0.748	0.807	0.884
303.15 K	0.485	0.503	0.536	0.557	0.593	0.636	0.686	0.746	0.82
308.15 K	0.458	0.475	0.501	0.523	0.556	0.596	0.641	0.695	0.762
313.15 K	0.432	0.448	0.473	0.493	0.524	0.559	0.604	0.65	0.712
318.15 K	0.41	0.425	0.446	0.466	0.493	0.523	0.575	0.61	0.667

ClC(Cl)C(Cl)Cl + CCCCCCCC
303.15 K, 101 kPa
Conditions	viscosity [mPa·s]
x1 = 0.1642	0.536
x1 = 0.2409	0.562
x1 = 0.3162	0.61
x1 = 0.3944	0.655
x1 = 0.4996	0.725
x1 = 0.5896	0.794
x1 = 0.6696	0.864
x1 = 0.7658	0.976
x1 = 0.8847	1.167
x1 = 0.9045	1.208

COCCOCCOC + CCCCCCCCC
viscosity [mPa·s], 101.33 kPa
Conditions	x1 = 0.0991	x1 = 0.2003	x1 = 0.3005	x1 = 0.3982	x1 = 0.5023	x1 = 0.5963	x1 = 0.6999	x1 = 0.7997	x1 = 0.897
298.15 K	0.642	0.64	0.665	0.691	0.712	0.747	0.794	0.836	0.898
308.15 K	0.559	0.56	0.579	0.6	0.618	0.647	0.685	0.718	0.768
318.15 K	0.49	0.49	0.507	0.523	0.538	0.561	0.591	0.62	0.662

ClC(Cl)C(Cl)Cl + CCCCCCCCC
303.15 K, 101 kPa
Conditions	viscosity [mPa·s]
x1 = 0.1552	0.651
x1 = 0.2636	0.704
x1 = 0.3332	0.742
x1 = 0.3926	0.77
x1 = 0.5196	0.836
x1 = 0.5976	0.879
x1 = 0.6903	0.943
x1 = 0.7468	0.991
x1 = 0.8858	1.163
x1 = 0.9204	1.235

COCCOCCOC + CCCCCCCCCC
viscosity [mPa·s], 101.33 kPa
Conditions	x1 = 0.1008	x1 = 0.2018	x1 = 0.3025	x1 = 0.3984	x1 = 0.4993	x1 = 0.6592	x1 = 0.701	x1 = 0.7987	x1 = 0.9013
298.15 K	0.798	0.788	0.787	0.79	0.8	0.834	0.846	0.869	0.915
308.15 K	0.689	0.682	0.679	0.68	0.688	0.716	0.726	0.746	0.784
318.15 K	0.597	0.59	0.589	0.589	0.597	0.618	0.627	0.643	0.674

COCCOCCOC + CCCCCCCCCCCC
viscosity [mPa·s], 101.33 kPa
Conditions	x1 = 0.1009	x1 = 0.1998	x1 = 0.2993	x1 = 0.4034	x1 = 0.5021	x1 = 0.6015	x1 = 0.7024	x1 = 0.8008	x1 = 0.9003
298.15 K	1.236	1.157	1.11	1.074	1.043	1.02	1.001	0.981	0.98
308.15 K	1.038	0.976	0.94	0.909	0.884	0.865	0.849	0.837	0.835
318.15 K	0.88	0.83	0.801	0.78	0.757	0.743	0.728	0.72	0.719

COCCOCCOC + CCCCCCCCCCCCCC
viscosity [mPa·s], 101.33 kPa
Conditions	x1 = 0.0987	x1 = 0.2023	x1 = 0.302	x1 = 0.4002	x1 = 0.5033	x1 = 0.594	x1 = 0.6981	x1 = 0.7958	x1 = 0.8986
298.15 K	1.835	1.672	1.55	1.448	1.345	1.275	1.187	1.113	1.044
308.15 K	1.503	1.38	1.29	1.205	1.122	1.068	0.996	0.938	0.888
318.15 K	1.248	1.153	1.07	1.009	0.945	0.902	0.848	0.8	0.76

COCCOCCOC + CCCCCCCCCCCCCCCC
viscosity [mPa·s], 101.33 kPa
Conditions	x1 = 0.1013	x1 = 0.2067	x1 = 0.3071	x1 = 0.403	x1 = 0.5078	x1 = 0.6013	x1 = 0.7004	x1 = 0.7997	x1 = 0.9021
298.15 K	2.629	2.359	2.101	1.9	1.721	1.568	1.4	1.262	1.106
308.15 K	2.107	1.885	1.712	1.552	1.414	1.29	1.173	1.058	0.934
318.15 K	1.69	1.515	1.385	1.288	1.178	1.08	0.984	0.89	0.799

COCCOCCOC + CCCCCCCCCO
101 kPa
Conditions	viscosity [mPa·s]
293.15 K, x1 = 0.03749	9.714
293.15 K, x1 = 0.09901	7.617
293.15 K, x1 = 0.1933	5.424
293.15 K, x1 = 0.2971	3.978
293.15 K, x1 = 0.4043	3.002
293.15 K, x1 = 0.4948	2.43
293.15 K, x1 = 0.597	1.978
293.15 K, x1 = 0.6959	1.641
293.15 K, x1 = 0.822	1.36
293.15 K, x1 = 0.9135	1.201
293.15 K, x1 = 0.9364	1.177
303.15 K, x1 = 0.03786	6.826
303.15 K, x1 = 0.1002	5.439
303.15 K, x1 = 0.1822	4.165
303.15 K, x1 = 0.2967	3.028
303.15 K, x1 = 0.4005	2.353
303.15 K, x1 = 0.5022	1.911
303.15 K, x1 = 0.5943	1.603
303.15 K, x1 = 0.7009	1.347
303.15 K, x1 = 0.7989	1.167
303.15 K, x1 = 0.894	1.038
303.15 K, x1 = 0.9511	0.975
313.15 K, x1 = 0.03928	4.899
313.15 K, x1 = 0.1017	4.015
313.15 K, x1 = 0.198	3.05
313.15 K, x1 = 0.304	2.349
313.15 K, x1 = 0.3952	1.91
313.15 K, x1 = 0.5025	1.559
313.15 K, x1 = 0.5982	1.312
313.15 K, x1 = 0.6977	1.134
313.15 K, x1 = 0.7914	1.001
313.15 K, x1 = 0.8971	0.884
313.15 K, x1 = 0.9456	0.842

COCCOCCOC + CCCCCCCO
101 kPa
Conditions	viscosity [mPa·s]
293.15 K, x1 = 0.04527	5.749
293.15 K, x1 = 0.09631	4.758
293.15 K, x1 = 0.1964	3.424
293.15 K, x1 = 0.2974	2.659
293.15 K, x1 = 0.3948	2.201
293.15 K, x1 = 0.4982	1.826
293.15 K, x1 = 0.5957	1.573
293.15 K, x1 = 0.6957	1.385
293.15 K, x1 = 0.8053	1.255
293.15 K, x1 = 0.8916	1.169
293.15 K, x1 = 0.957	1.12
303.15 K, x1 = 0.05391	4.113
303.15 K, x1 = 0.09481	3.59
303.15 K, x1 = 0.198	2.635
303.15 K, x1 = 0.2974	2.097
303.15 K, x1 = 0.3935	1.765
303.15 K, x1 = 0.4894	1.515
303.15 K, x1 = 0.5993	1.294
303.15 K, x1 = 0.6968	1.153
303.15 K, x1 = 0.8032	1.053
303.15 K, x1 = 0.8887	0.999
303.15 K, x1 = 0.9613	0.958
313.15 K, x1 = 0.05044	3.122
313.15 K, x1 = 0.0869	2.793
313.15 K, x1 = 0.1869	2.128
313.15 K, x1 = 0.2981	1.689
313.15 K, x1 = 0.3977	1.428
313.15 K, x1 = 0.5081	1.228
313.15 K, x1 = 0.5937	1.096
313.15 K, x1 = 0.7001	0.974
313.15 K, x1 = 0.7989	0.903
313.15 K, x1 = 0.8893	0.848
313.15 K, x1 = 0.9538	0.819

ClC(Cl)C(Cl)Cl + CCCCCCCO
303.15 K, 101 kPa
Conditions	viscosity [mPa·s]
x2 = 0.1082	1.677
x2 = 0.2331	1.902
x2 = 0.3041	2.042
x2 = 0.3446	2.126
x2 = 0.4479	2.367
x2 = 0.5205	2.568
x2 = 0.6548	3.047
x2 = 0.781	3.616
x2 = 0.8562	4.014
x2 = 0.9304	4.446

COCCOCCOC + CCCCCCO
101 kPa
Conditions	viscosity [mPa·s]
293.15 K, x1 = 0.04448	4.368
293.15 K, x1 = 0.105	3.527
293.15 K, x1 = 0.1942	2.714
293.15 K, x1 = 0.3018	2.148
293.15 K, x1 = 0.4004	1.796
293.15 K, x1 = 0.4511	1.674
293.15 K, x1 = 0.6059	1.383
293.15 K, x1 = 0.6997	1.285
293.15 K, x1 = 0.7893	1.204
293.15 K, x1 = 0.9139	1.128
293.15 K, x1 = 0.9331	1.117
303.15 K, x1 = 0.04385	3.29
303.15 K, x1 = 0.09867	2.69
303.15 K, x1 = 0.1894	2.153
303.15 K, x1 = 0.2974	1.72
303.15 K, x1 = 0.4047	1.435
303.15 K, x1 = 0.4914	1.28
303.15 K, x1 = 0.6035	1.141
303.15 K, x1 = 0.7106	1.046
303.15 K, x1 = 0.7884	0.996
303.15 K, x1 = 0.9193	0.945
303.15 K, x1 = 0.942	0.937
313.15 K, x1 = 0.04597	2.536
313.15 K, x1 = 0.09846	2.162
313.15 K, x1 = 0.1996	1.706
313.15 K, x1 = 0.2989	1.412
313.15 K, x1 = 0.4011	1.226
313.15 K, x1 = 0.4983	1.089
313.15 K, x1 = 0.5998	0.991
313.15 K, x1 = 0.7041	0.916
313.15 K, x1 = 0.7993	0.866
313.15 K, x1 = 0.9072	0.825
313.15 K, x1 = 0.942	0.815

CCCCCCn1cc[n+](C)c1.F[B-](F)(F)F + CCCCCO
101.33 kPa, x1 = 0.135
Conditions	viscosity [mPa·s]
315 K	5.305
315.75 K	4.745

CCCCCCN + CCCCN(CCCC)CCCC
viscosity [mPa·s], 101 kPa
Conditions	x2 = 0.1032	x2 = 0.1936	x2 = 0.3936	x2 = 0.4924	x2 = 0.6079	x2 = 0.782	x2 = 0.9153
303.15 K	0.7562	0.7958	0.8857	0.9301	0.9836	1.063	1.125
313.15 K	0.6517	0.6853	0.7606	0.7985	0.8436	0.9122	0.9652

Oc1ccccc1 + CCCCN(CCCC)CCCC
298.16 K, 101 kPa
Conditions	viscosity [mPa·s]
x1 = 0.5219	9.41
x1 = 0.6008	14.9
x1 = 0.6531	23.52
x1 = 0.6723	27.66
x1 = 0.7083	43.54
x1 = 0.7386	64.37
x1 = 0.7532	78.43
x1 = 0.7783	108.3
x1 = 0.7981	126.2
x1 = 0.8207	131.2
x1 = 0.8248	125.7
x1 = 0.8491	110.5
x1 = 0.8704	84.32
x1 = 0.9022	56.08
x1 = 0.9213	40.37
x1 = 0.9711	20.65
